How the values were obtained:
Trial 2 = type: in vivo, human
[1] = cited from earlier work
[2] = cited from earlier work; remark: listed apart in the source
[3] = Trial 1: safety and tolerability, treatment-emergent adverse events; type: in vivo, human; settings: after warfarin 25 mg, day 9, one subject, moderate severity, possibly related to warfarin
[4] = trial 2, oral semaglutide 20 mg once daily

Compound: CC[C@H](C)[C@H](NC(=O)[C@H](Cc1ccccc1)NC(=O)[C@H](CCC(=O)O)NC(=O)[C@H](CCCCNC(=O)COCCOCCNC(=O)COCCOCCNC(=O)CC[C@H](NC(=O)CCCCCCCCCCCCCCCCC(=O)O)C(=O)O)NC(=O)[C@H](C)NC(=O)[C@H](C)NC(=O)[C@H](CCC(N)=O)NC(=O)CNC(=O)[C@H](CCC(=O)O)NC(=O)[C@H](CC(C)C)NC(=O)[C@H](Cc1ccc(O)cc1)NC(=O)[C@H](CO)NC(=O)[C@H](CO)NC(=O)[C@@H](NC(=O)[C@H](CC(=O)O)NC(=O)[C@H](CO)NC(=O)[C@@H](NC(=O)[C@H](Cc1ccccc1)NC(=O)[C@@H](NC(=O)CNC(=O)[C@H](CCC(=O)O)NC(=O)C(C)(C)NC(=O)[C@@H](N)Cc1cnc[nH]1)[C@@H](C)O)[C@@H](C)O)C(C)C)C(=O)N[C@@H](C)C(=O)N[C@@H](Cc1c[nH]c2ccccc12)C(=O)N[C@@H](CC(C)C)C(=O)N[C@H](C(=O)N[C@@H](CCCNC(=N)N)C(=O)NCC(=O)N[C@@H](CCCNC(=N)N)C(=O)NCC(=O)O)C(C)C [semaglutide]
- AUC0–24h at steady state, range of geometric means (Trial 2; [4]): 622 to 719 nmol·h/L
- Cmax at steady state, range of geometric means (Trial 2; [4]): 31.0 to 35.8 nmol/L
- Mean AUC0–24h at steady state (Trial 1; trial 1, oral semaglutide 20 mg once daily, after last dose (day 84)): 761.96 nmol·h/L
- mean t½ (Trial 1; trial 1, oral semaglutide 20 mg once daily, steady state): 162 h

Compound: C[C@H]1O[C@@H](O[C@H]2[C@@H](O)C[C@H](O[C@H]3[C@@H](O)C[C@H](O[C@H]4CC[C@@]5(C)[C@H](CC[C@@H]6[C@@H]5C[C@@H](O)[C@]5(C)[C@@H](C7=CC(=O)OC7)CC[C@]65O)C4)O[C@@H]3C)O[C@@H]2C)C[C@H](O)[C@@H]1O [Digoxin, digoxin]
- tmax (Trial 2; digoxin 500 μg single dose alone, N = 31, median (minimum, maximum)): 1.0 h
- mean t½ (Trial 2; digoxin single dose, alone and with oral semaglutide (both conditions)): 42 to 43 h
- absorption (incomplete) ([1]; oral): ~ 70%
- half-life ([1]; used to set the length of the washout periods, no reference given): 30 to 50 h
- Reduction of Cmax on coadministration with liraglutide [2]: 27–38%
- AUC on coadministration with exenatide ([2]; digoxin PK): unchanged
- Decrease of Cmax on coadministration with exenatide ([2]; digoxin PK): 17%

Compound: NCCCC[C@H](N[C@@H](CCc1ccccc1)C(=O)O)C(=O)N1CCC[C@H]1C(=O)O [Lisinopril, lisinopril]
- tmax (Trial 1; lisinopril 20 mg single dose alone, N = 52, median (minimum, maximum)): 6.0 h

Compound: subcutaneous semaglutide: semaglutide as once-weekly subcutaneous injection
- mean t½ for subcutaneous semaglutide [1]: 156 to 160 h

Compound: CC(=O)CC(c1ccccc1)c1c(O)c2ccccc2oc1=O (stereo not drawn) [Warfarin, warfarin]
- INRmax of the subject with a bleeding event (epistaxis) [3]: 2.53
- absorption ([1]; oral): completely absorbed

Compound: CN(C)C(=N)N=C(N)N [Metformin, metformin]
- tmax in trial 2 (Trial 2; metformin steady state, morning dose fasting): 48 to 60 min
- tmax generally reported [1]: 2.5 h
- Increase in AUC on coadministration of multiple doses of dulaglutide ([2]; steady-state metformin): up to 15%
